The source of these data is patent US7745443B2 (Sanofi-Aventis Deutschland GmbH, priority 2002, dated 2010).

Chain of binding of human von Willebrand factor to europium (Eu)-chelate-labeled chimeric GPIb-Fc protein (P04275 764-2813 limits assumed, change not shown): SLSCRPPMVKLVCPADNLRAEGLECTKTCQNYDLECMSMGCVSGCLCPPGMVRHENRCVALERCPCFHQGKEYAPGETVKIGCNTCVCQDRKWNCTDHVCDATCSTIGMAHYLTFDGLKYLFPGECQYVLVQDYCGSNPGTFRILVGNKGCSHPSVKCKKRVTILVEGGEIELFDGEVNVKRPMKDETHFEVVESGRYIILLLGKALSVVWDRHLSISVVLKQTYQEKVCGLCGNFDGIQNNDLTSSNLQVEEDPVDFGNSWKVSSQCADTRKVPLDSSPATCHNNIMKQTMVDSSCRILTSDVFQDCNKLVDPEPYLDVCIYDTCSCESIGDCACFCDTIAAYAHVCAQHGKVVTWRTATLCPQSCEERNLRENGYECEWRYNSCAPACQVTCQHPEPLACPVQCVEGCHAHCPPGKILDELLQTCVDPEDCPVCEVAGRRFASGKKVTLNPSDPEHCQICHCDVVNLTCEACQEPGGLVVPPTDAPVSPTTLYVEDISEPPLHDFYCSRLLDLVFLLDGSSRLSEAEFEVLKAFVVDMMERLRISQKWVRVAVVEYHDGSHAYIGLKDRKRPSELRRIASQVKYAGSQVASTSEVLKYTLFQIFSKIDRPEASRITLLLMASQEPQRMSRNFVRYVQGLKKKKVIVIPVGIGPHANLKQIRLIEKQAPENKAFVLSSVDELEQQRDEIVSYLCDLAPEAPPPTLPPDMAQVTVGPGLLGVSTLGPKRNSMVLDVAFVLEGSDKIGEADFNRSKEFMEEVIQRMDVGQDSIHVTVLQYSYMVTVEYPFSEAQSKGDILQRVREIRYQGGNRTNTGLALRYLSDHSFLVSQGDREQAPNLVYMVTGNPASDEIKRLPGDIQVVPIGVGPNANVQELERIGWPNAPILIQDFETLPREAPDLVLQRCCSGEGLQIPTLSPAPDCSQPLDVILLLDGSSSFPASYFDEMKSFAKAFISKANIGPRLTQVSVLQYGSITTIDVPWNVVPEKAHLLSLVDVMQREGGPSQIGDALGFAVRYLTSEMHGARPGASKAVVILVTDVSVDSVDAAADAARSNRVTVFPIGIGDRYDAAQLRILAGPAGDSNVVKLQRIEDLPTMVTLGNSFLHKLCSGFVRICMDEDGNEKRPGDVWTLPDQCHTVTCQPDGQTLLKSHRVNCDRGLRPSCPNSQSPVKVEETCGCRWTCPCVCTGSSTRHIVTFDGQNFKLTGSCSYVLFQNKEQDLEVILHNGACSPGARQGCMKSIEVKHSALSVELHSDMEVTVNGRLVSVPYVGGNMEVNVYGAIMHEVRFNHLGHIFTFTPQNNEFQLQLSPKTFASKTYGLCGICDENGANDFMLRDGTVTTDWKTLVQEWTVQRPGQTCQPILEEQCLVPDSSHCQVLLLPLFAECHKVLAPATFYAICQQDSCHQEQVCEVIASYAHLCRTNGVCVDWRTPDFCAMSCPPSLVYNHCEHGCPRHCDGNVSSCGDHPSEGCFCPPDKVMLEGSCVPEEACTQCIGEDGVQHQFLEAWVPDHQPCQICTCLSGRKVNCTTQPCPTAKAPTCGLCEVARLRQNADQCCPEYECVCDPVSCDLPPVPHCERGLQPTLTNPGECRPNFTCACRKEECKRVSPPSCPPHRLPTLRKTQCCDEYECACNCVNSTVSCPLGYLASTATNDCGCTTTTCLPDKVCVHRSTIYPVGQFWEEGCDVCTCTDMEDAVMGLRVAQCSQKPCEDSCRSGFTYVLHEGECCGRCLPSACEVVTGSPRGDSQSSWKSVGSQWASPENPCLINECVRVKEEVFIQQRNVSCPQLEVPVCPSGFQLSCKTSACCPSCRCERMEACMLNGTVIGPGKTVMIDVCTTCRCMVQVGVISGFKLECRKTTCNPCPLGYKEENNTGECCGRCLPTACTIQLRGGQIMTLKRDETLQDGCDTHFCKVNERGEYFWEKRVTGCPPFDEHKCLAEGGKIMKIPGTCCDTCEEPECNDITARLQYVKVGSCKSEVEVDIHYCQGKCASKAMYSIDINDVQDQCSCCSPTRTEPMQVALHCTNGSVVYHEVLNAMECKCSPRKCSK
Chain of binding of human von Willebrand factor to europium (Eu)-chelate-labeled chimeric GPIb-Fc protein (P07359 17-335 limits assumed, change not shown): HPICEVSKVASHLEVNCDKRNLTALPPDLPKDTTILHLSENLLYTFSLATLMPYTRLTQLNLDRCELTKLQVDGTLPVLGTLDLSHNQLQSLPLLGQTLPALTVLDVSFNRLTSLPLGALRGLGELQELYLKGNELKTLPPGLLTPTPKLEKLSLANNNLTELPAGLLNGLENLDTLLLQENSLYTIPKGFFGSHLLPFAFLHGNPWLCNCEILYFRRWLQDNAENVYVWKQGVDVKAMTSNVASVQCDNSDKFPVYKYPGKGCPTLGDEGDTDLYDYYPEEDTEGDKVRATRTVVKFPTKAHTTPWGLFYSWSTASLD

This test addresses binding of human von Willebrand factor to europium (Eu)-chelate-labeled chimeric GPIb-Fc protein (Homo sapiens, UniProt P04275+P07359). The test is described as follows: Von Willebrand Factor-GPIb Binding Assay (Eu based, botrocetin-induced). The settings on record: botrocetin-induced binding of Eu-chelate-labeled chimeric GPIb-Fc to immobilized human vWF; IC50 values as specified in the examples. The protocol: Activity of compounds of the formula I was shown by an Eu based binding assay in which the binding of human von Willebrand factor to an europium (Eu)-chelate-labeled chimeric GPIb-Fc protein was induced by botrocetin. The preparation of the Eu-chelate-labeled chimeric GPIb-Fc protein is described in detail in a patent application (Fukuchi et al., EP1074564).
A TBS (Tris buffered saline, 20 mM Tris-HCl (pH 7.4) and 0.15 M NaCl) (50 microl) containing human von Willebrand factor (2.5 microg/ml) was added to each well of 1 96-well plate, and the von Willebrand factor was immobilized as a solid phase overnight at 4 dec. Each well was washed once with TBS (150 microl) and blocked with TBS containing 5% BSA (bovine serum albumin) for about 3 hours. Each well of the plate was washed twice with TBS (150 microl), and then added with 25 microl of an assay buffer (Assay Buffer, 1244-106, produced by Wallac) with the compounds, further added with the assay buffer (25 microl) containing the europium (Eu)-chelate-labeled chimeric GPIb-Fc protein (100 ng/ml), labeled with Eu-N1-ITC (Eu-chelate of N^1-(p-isothiocyanatebenzyl)-diethlenetriamine-N^1,N^2,N^3,N^3-tetraacetic acid, 1244-302, produced by Wallac) and botrocetin (500 ng/ml), and left stand at room temperature for 2 hours. The preparation of the Eu-chelate-labeled chimeric GPIb-Fc protein is described in detail in a patent application (Fukuchi et al., EP1074564). Each well of the plate was washed 5 times with TBS (150 microl) containing 0.05% Tween-20, then added with 100 microl of a fluorescence enhancement buffer (Enhancement Solution, 1244-104, produced by Wallac), and shaken for 1 minute. Then, the amount of europium (Eu) was measured by using a 1420 ARVO multi-label counter (produced by Wallac, measurements time: 1 second).
Usually IC50 stands for the concentration needed to halve the response being measured. `Cc1cc(N)c2cc(C(=O)Nc3ccc(NC(=O)c4ccc(Cl)c(S(N)(=O)=O)c4)cc3)ccc2n1` [Example 26, 4-Amino-N-(4-{[3-(aminosulfonyl)-4-chlorobenzoyl]amino}phenyl)-2-methyl-6-quinolinecarboxamide] came in with an IC50 of 32.8 µM.
The same measure for `Cc1cc(N)c2cc(C(=O)Nc3ccc(NC(=O)c4cccc(N(C)C)c4)cc3)ccc2n1` [Example 27, 4-Amino-N-{4-[(3-dimethylaminobenzoyl)amino]phenyl}-2-methyl-6-quinolinecarboxamide]: 46.5 µM.
`Cc1cc(N)c2cc(C(=O)Nc3ccc(NC(=O)c4ccc(OC5CCNCC5)cc4)cc3)ccc2n1` [Example 29, 4-Amino-N-(4-{[4-(4-piperidinyloxy)benzoyl]amino}phenyl)-2-methyl-6-quinolinecarboxamide]: the IC50 is 19.8 µM.
`Cc1cc(N)c2cc(C(=O)Nc3ccc(NC(=O)c4ccc5[nH]c(N)nc5c4)cc3)ccc2n1` [Example 30, 4-Amino-N-(4-{[(2-amino-1H-benzimidazol-5-yl)carbonyl]amino}phenyl)-2-methyl-6-quinolinecarboxamide] showed an IC50 of 4.03 µM.
To `Cc1cc(N)c2cc(C(=O)Nc3ccc(NC(=O)c4ccc5nc(N)sc5c4)cc3)ccc2n1` [Example 31] belongs 2.9 µM; to `Cc1cc(N)c2cc(C(=O)Nc3ccc(NC(=O)c4ccc5[nH]cnc5c4)cc3)ccc2n1` [Example 32, 4-amino-N-{4-[(1H-benzimidazol-5-ylcarbonyl)amino]phenyl}-2-methyl-6-quinolinecarboxamide], 7.5 µM.
To `Cc1cc(N)c2cc(C(=O)Nc3ccc(NC(=O)c4ccc5nc(N)ccc5c4)cc3)ccc2n1` [Example 33, 4-Amino-N-(4-{[(2-amino-6-quinolinyl)carbonyl]amino}phenyl)-2-methyl-6-quinolinecarboxamide] belongs 1.7 µM; to `COc1cc(NC(=O)c2ccc3nc(N)ccc3c2)ccc1NC(=O)c1ccc2nc(C)cc(N)c2c1` [Example 34, 4-Amino-N-(4-{[(2-amino-6-quinolinyl)carbonyl]amino}-2-methoxyphenyl)-2-methyl-6-quinolinecarboxamide], 3.61 µM.
As for `COc1cc(NC(=O)c2ccc3[nH]c(C)nc3c2)ccc1NC(=O)c1ccc2nc(C)cc(N)c2c1` [Example 35, 4-Amino-N-(2-methoxy-4-{[(2-methyl-1H-benzimidazol-5-yl)carbonyl]amino}phenyl)-2-methyl-6-quinolinecarboxamide], the IC50 was 9.18 µM.
Turning to `Cc1cc(N)c2cc(C(=O)Nc3ccc(NC(=O)c4ccc5nc(C)cc(N)c5c4)cc3)ccc2n1` [Example 36], the IC50 is 1.57 µM.
To `Cc1cc(N)c2cc(C(=O)Nc3ccc(CNc4ccc5cn[nH]c5c4)cc3)ccc2n1` [Example 37, 4-Amino-N-{4-[(1H-indazol-6-ylamino)methyl]phenyl}-2-methyl-6-quinolinecarboxamide] belongs 2.56 µM; to `Cc1cc(N)c2cc(C(=O)NC3CCC(NC(=O)c4ccc5nc(N)sc5c4)CC3)ccc2n1` (stereo not shown) [Example 38, 4-Amino-N-(4-{[(2-amino-1,3-benzothiazol-6-yl)carbonyl]amino}cyclohexyl)-2-methyl-6-quinolinecarboxamide], 33.3 µM; to `Cc1cc(N)c2cc(C(=O)NC3CCC(NC(=O)c4ccc5nc(N)ccc5c4)CC3)ccc2n1` (stereo not shown) [Example 39, 4-Amino-N-(4-{[(2-amino-6-quinolinyl)carbonyl]amino}cyclohexyl)-2-methyl-6-quinolinecarboxamide], 28.5 µM.
